According to patent publication EP0270692A1, “ANTIARRHYTHMIC AGENT” (KYOWA HAKKO KOGYO CO., LTD., priority 1986, dated 1988):
Counter-ions that a name gives are not always drawn. Like-named read-outs stand apart in the source and are kept apart here.

Experiments:
[1] = system: chloroform-induced ventricular arrhythmias; experiment: Mouse chloroform-induced ventricular arrhythmias test; format: in vivo, DD-strain mice; conditions: for Anti-arrhythmic Activity: 100 mg/kg orally, effective when two or more of three examples kept 720 or less heart beat/min for 30 seconds
Protocol: Antiarrhythmic activity was examined according to mouse chloroform-induced ventricular arrhythmias test.
DD-strain mice weighing 18 -22 g were abstinent from food and water for 4-5 hours and antiarrhythmic activity was examined according to the Block's method [Life Science 28, 2623 (1981)]. Drugs tested were orally administered (100 mg/kg) and the mice were exposed to chloroform. After stop of respiration, electrocardiogram was measured according to standard limb leading method. The case where 720 or less heart beat/min was maintained for 30 seconds was regarded as effective.
The test compound was judged as being effective when two or more examples were effective among three examples.

male dd-strain mice = experiment: Test for acute toxicity (MLD; LD50); conditions: mouse, in vivo
Protocol: (§1) Groups of 5 male dd-strain mice weighing 20 ±1 g were used. The test compounds were administered either orally (0.3 mg/kg) or intraperitoneally (0.1 mg/kg).
(§2) The MLD (minimum lethal dose) was determined by observing the mortality for 7 days after the administration.

[2] = Test for acute toxicity (MLD; LD50); conditions: mouse, in vivo
Protocol: as §1, §2

pupil size = experiment: Mydriasis activity test (anticholine activity); format: in vivo, Male dd-strain mice; conditions: oral; dose required to double the pupil size 30 minutes after administration
Description: (§3) In Table 2, Test Nos. 1 and 4 are tests on antiarrhythmic activity and Test No. 3, on anticholine activity and Test No. 5, on side effect. What is meant by the small ratio of Test No. 1 to that of Test No. 3 and the small ratio of Test No. 4 to that of Test No. 5 is that the compound has high therapeutic ratio (wide safety margin).

left atrium [3] = experiment: Prolongation of effective refractory period in excised left atrium; set-up: species or system Male Hartley-strain guinea pigs; conditions: Cavia porcellus; guinea pig left atrium in Krebs-Henseleit solution, 31 ± 1°C; read-out: The concentration required to prolong effective refractory period by 30%
Description: as §3

left atrium [4] = experiment: Reduction of amplitude of myocardial contractile force in excised left atrium; set-up: species or system Male Hartley-strain guinea pigs
Description: In Table 2, Test Nos. 1 and 4 are tests on antiarrhythmic activity and Test No. 3, on anticholine activity and Test No. 5, on side effect.

CCN(CC)CCNC1c2cc(OC)ccc2OCc2ncccc21 (centres unmarked) [1.5 Fumarate of Compound 1]
Anti-arrhythmic Activity [1]: Effective
ED50 ([1]; mouse, oral, read-out: Chloroform-induced ventricular antiarrhythmic activity test ED50): 80 mg/kg
Acute Toxicity MLD i.p. (male dd-strain mice; ip): more than 100 mg/kg
Acute Toxicity MLD p.o. (male dd-strain mice; po): more than 300 mg/kg
LD50 at 72 h ([2]; iv, read-out: Acute toxicity test LD50 iv): 93 mg/kg
LD50 at 72 h ([2]; po, read-out: Acute toxicity test LD50 po): > 1000 mg/kg
Mydriasis activity test ED100 (pupil size): 235 mg/kg
EC30 (left atrium [3]): 4.9 µg/mL
The concentration required to reduce the amplitude of myocardial contractile force by 30% (left atrium [4]; guinea pig left atrium in Krebs-Henseleit solution, 31 ± 1°C): 110 µg/mL
5/4 (ratio) (left atrium [4]; ratio of Test No. 5 (contractile force) to Test No. 4 (refractory period)): 22.4

CCN(CC)CCNC1c2cc(C)ccc2OCc2ncccc21 (centres unmarked) [5-[2-diethylamino)-ethyl]amino-7-methyl-5,11-dihydro[1]benz-oxepino[3,4-b]pyridine, reference compound]
Anti-arrhythmic Activity [1]: ^*3 Ineffective
